Laboratory results: patent publication US20230263909A1, “ENHANCED EFFECTS OF GENE-IMMUNOTHERAPY AND IMMUNOSUPPRESSANTS IN MULTIPLE SCLEROSIS” (University of Florida Research Foundation, Incorporated, priority 2020, published 2023)
Like-named read-outs stand apart in the source and are kept apart here.

How the values were obtained:
MOG35-55-induced EAE = settings: vector at MCS <2.5, PRDL at MCS ≥ 3.0 (FIG. 33A)
Method: Using 8-week-old Female C57BL/6 mice, EAE was induced with a myelin oligodendrocyte glycoprotein epitope (MOG35-55) in CFA. As mice developed disease (MCS 2.0± 0.5), mice were injected with a hepatocyte-directed viral vector encoding MOG (e.g., AAV.MOG vector) and began daily administration of prednisolone (PRDL) via oral gavage (10 mg/kg animal) every 24 hours until day 7. Control mice were treated with prednisolone only, without the administration of vector or with Null vector. At day 7, prednisolone treatment was discontinued, except for the half of the control group receiving treatment which continued receiving prednisolone.
An experiment was performed to assess the effect of supplementing rAAV therapy with PRDL in high clinical score mice. C57BL/6 mice were administered AAV.MOG or AAV.Null control at disease onset, or a mean clinical score of 2.0±0.5. Subsequently, at the peak of disease, or an MCS ≥ 3.0, mice were administered oral gavage of PRDL (10 mg/kg). […] Subsequently, at an MCS ≥ 3.0, mice were administered oral gavage of PRDL (10 mg/kg).
In an experiment in which the order of administrations was essentially reversed, C57BL/6 mice received AAV.MOG or AAV.Null after EAE developed to an MCS of 2.5 or higher. At the peak of disease (MCS ≥3.0), mice were started on oral gavage of PRDL as before.

CD4+CD25hiFOXP3+ Tregs = test: Peripheral blood Treg phenotyping before and after rapamycin; type: in vivo, C57BL/6 mice; settings: after rapamycin
Source text: Flow Cytometry. Peripheral blood cells or splenocytes harvested from mice and processed to produce single-cell suspensions were stained with antibodies to CD3 (145-2C11), CD4 (RM4-5), CD25 (PC61), CD8 (53-6.7), B220 (RA3-6B2), CD44 (IM7), and CD62L (MEL14) (BD Biosciences, San Jose, CA, USA). Class II MHC tetramers included MOG38-49/I-Ab class II MHC (GWYRSPFSRVVH) and h.CLIP87-101 (PVSKMRMATPLLMQA), and were provided by the NIH Tetramer Core (Emory University, Atlanta, GA, USA). Red blood cell lysis was performed with VersaLyse (Beckman Coulter, Brea, CA, USA). Intracellular staining for FOXP3 was performed using the FOXP3 staining kit (eBioscience, San Diego, CA, USA). Samples were analyzed on an LSR-II flow cytometer (BD Biosciences) and post-analyzed using FCS Express 4 (Denovo Software, Los Angeles, CA, USA).
Rapamycin blocks the activation of a serine/threonine protein kinase called mammalian target of rapamycin (mTOR), which has a potent anti-proliferative effect on antigen-stimulated effector T and B cells. […] In contrast, when analyzed after the final rapamycin dose on day 10, there was an ~33% difference in total Tregs between control mice receiving rapamycin alone and AAV8.MOG-treated animals (FIGS. 24D and 24E).
CD44 is a cell-surface glycoprotein involved in cell-to-cell interactions that are important in activation, migration, and apoptosis.

[1] = system: established MOG35-55-induced EAE; test: Therapeutic AAV8.MOG with transient rapamycin immunosuppression in established EAE; type: in vivo, C57BL/6 mice
Method: Vector Administration. […] Two weeks later, EAE was induced. To evaluate the therapeutic effect of vector administration, EAE was induced first in 9- to 11-week-old mice before the administration of vectors. As mice reached the targeted/indicated severity of disease they were injected with […] of AAV8.MOG or control vector (scAAV.GFP or sham/PBS) via the tail vein. Rapamycin (LC Laboratories, Woburn, MA, USA) was dissolved in a vehicle solution containing (0.2% w/v) carboxymethyl-cellulose sodium salt (C-5013) and (0.25% v/v) polysorbate-80 (P-8074) (Sigma, St. Louis, MO, USA) in distilled water and stored at 4° C. protected from light according to the manufacturer’s instructions. Rapamycin (5 mg/kg) was given i.p. as indicated for a total of three and five doses beginning on the day of vector administration.
To test the hypothesis, the experimental parameters that previously produced the smallest degree of disease reversal were reestablished (FIG. 23C). EAE was induced and AAV8.MOG treatment was withheld until mice developed complete tail paralysis with hind-leg paresis (MCS: 1.4 ± 0.1, combined). Immediately after being treated with either AAV8.MOG or PBS/control, all mice received an intraperitoneal injection of rapamycin (5 mg/kg). Subsequently, mice received two additional doses of rapamycin (5 mg/kg) 48 hr apart (FIGS. 24). As expected, EAE disease progressed quickly and both groups of mice developed severe neurological deficits and paralysis (peak MCS: 2.9-3.0) (FIG. 24A). […] In contrast, neurological deficits in AAV8.MOG-treated mice continued to decrease, and all but one animal (90%) achieved complete remission (final MCS: 0.5 ± 0.3) (FIG. 24A).
Next, the effectiveness of the combined immunotherapy in late and end-stage EAE disease was tested. […] Remarkably, mice that received the AAV8.MOG/rapamycin immunotherapy, 71% (FIG. 24B) and 80% (FIG. 24C), respectively, responded to the treatment and went into near-complete remission (MCS: […]) by day ~30.

[2] = system: plasma alanine aminotransferase (ALT); test: Plasma alanine aminotransferase (ALT) activity; type: in vivo, C57BL/6 mice
Source text: Although various proteins have been safely expressed in the liver following AAV gene transfer,^89 evaluating the long-term stability of MOG expression in hepatocytes in the context of induced EAE was of interest. […] Additionally, hepatocyte expression of MOG persisted in the mice that received AAV8.MOG until termination of experiment at 200 days after EAE induction (FIG. 20A).
Plasma ALT levels were also monitored as an indicator of liver damage and failure of therapy. As reported above, the level of ALT activity detected in AAV8.MOG-treated mice and control mice was unremarkable throughout the rapamycin treatment window (FIGS. 24G and 24H). […] Based on the profound level of neurological impairment the control mice were experiencing, the significant rise in ALT is indicative of liver toxicity associated with end-stage organ failure (FIGS. 24B and 24C).

Compound | effect of PRDL on induction of tolerance by vector (MOG35-55-induced EAE) | effect of PRDL on induction of tolerance by vector (MOG35-55-induced EAE; listed as PDRL) | increase in activated Tregs (CD4+CD44+CD25hiFOXP3+) (CD4+CD25hiFOXP3+ Tregs) [%] | final MCS ([1]; rapamycin-only control mice, 35 days post-treatment, late-stage cohorts) | final MCS ([1]; treated at MCS 1.4 ± 0.1, all mice rapamycin 5 mg/kg i.p. x3) | mice relapsed by day 10 ([1]; treated at MCS 1.4 ± 0.1, rapamycin without vector) [%] | plasma ALT levels ([2]; 35 days post-treatment) | plasma ALT activity ([2]; throughout the rapamycin treatment window)
C[C@]12C=CC(=O)C=C1CC[C@@H]1[C@@H]2[C@@H](O)C[C@@]2(C)[C@H]1CC[C@]2(O)C(=O)CO [PRDL, prednisolone] | did not interfere with induction of tolerance | did not interfere with, nor supplement, the ability of AAV.MOG to suppress EAE |  |  |  |  |  | 
CO[C@H]1C[C@@H]2CC[C@@H](C)[C@@](O)(O2)C(=O)C(=O)N2CCCC[C@H]2C(=O)O[C@H]([C@H](C)C[C@@H]2CC[C@@H](O)[C@H](OC)C2)CC(=O)[C@H](C)/C=C(\C)[C@@H](O)[C@@H](OC)C(=O)[C@H](C)C[C@H](C)/C=C/C=C/C=C/1C [rapamycin] |  |  | 10.5 | 3.6 ± 0.5 | 3.5 ± 0.3 | 100 | significant increase in plasma ALT levels | unremarkable
